Assay results published in PubChem BioAssay AID248 (DTP/NCI, 2004).
Inconclusive results and toxic doses are left out. Cut-off read from the data, not from the text of the source: active = T/C of 150% or more; inactive = T/C below 125%.

System: L1210 leukemia ip in BDF1 mice, survival T/C
Experiment: NCI In Vivo Anticancer Drug Screen. Data for tumor model L1210 Leukemia (intraperitoneal) in B6D2F1 (BDF1) mice
Conditions: endpoint: mean survival time, higher = longer survival
Summary of the method: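 In this screen, tumor-bearing mice given compound are compared to those given vehicle, and their survival values are reported as a treated-to-control quotient.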

[1] = dose: 100.0 mg/kg/injection, schedule: Q01DX009 (ip), vehicle: Klucel (hydroxypropylcellulose) (HPC)
[2] = dose: 200.0 mg/kg/injection, schedule: Q01DX009 (ip), vehicle: Klucel (hydroxypropylcellulose) (HPC)
[3] = dose: 400.0 mg/kg/injection, schedule: Q01DX009 (ip), vehicle: Klucel (hydroxypropylcellulose) (HPC)
[4] = dose: 100.0 mg/kg/injection, schedule: Q04DX003 (ip), vehicle: Klucel (hydroxypropylcellulose) (HPC)
[5] = dose: 200.0 mg/kg/injection, schedule: Q04DX003 (ip), vehicle: Klucel (hydroxypropylcellulose) (HPC)
[6] = dose: 400.0 mg/kg/injection, schedule: Q04DX003 (ip), vehicle: Klucel (hydroxypropylcellulose) (HPC)

Measured: T/C

COc1c2c(c(OC(C)=O)c3c1C(=O)c1ccccc1C3=O)CCCC2
inactive: dose: 6.25 mg/kg/injection, schedule: Q01DX001 (ip), vehicle: saline 100 % of control | dose: 12.5 mg/kg/injection, schedule: Q01DX001 (ip), vehicle: saline 96 % of control | dose: 25.0 mg/kg/injection, schedule: Q01DX001 (ip), vehicle: saline 101 % of control | dose: 50.0 mg/kg/injection, schedule: Q01DX001 (ip), vehicle: saline 95 % of control | dose: 100.0 mg/kg/injection, schedule: Q01DX001 (ip), vehicle: saline 93 % of control

Cc1c(NC(=O)Nc2ccc(F)c([N+](=O)[O-])c2)c(=O)n(-c2ccccc2)n1C
inactive: [1] 102 % of control | [2] 96 % of control | [3] 103 % of control

Cc1cc(C2=CCCCC2)c2ccccc2c1C
inactive: dose: 100.0 mg/kg/injection, schedule: Q01DX001 (ip), vehicle: Klucel (hydroxypropylcellulose) (HPC) 95 % of control | dose: 200.0 mg/kg/injection, schedule: Q01DX001 (ip), vehicle: Klucel (hydroxypropylcellulose) (HPC) 103 % of control | dose: 400.0 mg/kg/injection, schedule: Q01DX001 (ip), vehicle: Klucel (hydroxypropylcellulose) (HPC) 95 % of control

O=C(NCCCl)NC1CCCCC1O (stereo not drawn)
inactive: dose: 100.0 mg/kg/injection, schedule: Q04DX002 (ip), vehicle: saline 98 % of control | dose: 200.0 mg/kg/injection, schedule: Q04DX002 (ip), vehicle: saline 91 % of control | dose: 400.0 mg/kg/injection, schedule: Q04DX002 (ip), vehicle: saline 102 % of control

O=C1C2CC=CCC2C(=O)N1SC(Cl)(Cl)Cl (stereo not drawn)
inactive: dose: 0.78 mg/kg/injection, schedule: Q01DX009 (ip), vehicle: saline with Tween-80 107 % of control | dose: 1.56 mg/kg/injection, schedule: Q01DX009 (ip), vehicle: saline with Tween-80 104 % of control | dose: 3.12 mg/kg/injection, schedule: Q01DX009 (ip), vehicle: saline with Tween-80 103 % of control | dose: 6.25 mg/kg/injection, schedule: Q01DX009 (ip), vehicle: saline with Tween-80 103 % of control | dose: 12.5 mg/kg/injection, schedule: Q01DX009 (ip), vehicle: saline with Tween-80 97 % of control | dose: 25.0 mg/kg/injection, schedule: Q01DX009 (ip), vehicle: saline with Tween-80 98 % of control

NC(=O)Oc1ccc(Cc2ccccc2)cc1
inactive: [1] 97 % of control | [4] 95 % of control | [2] 103 % of control | [5] 97 % of control | [3] 110 % of control | [6] 95 % of control

CN1CCC(CNC(=O)CCCCCCCCC(=O)NCC2(c3ccccc3)CCN(C)CC2)(c2ccccc2)CC1
inactive: dose: 0.63 mg/kg/injection, schedule: Q01DX Z (ip), vehicle: saline 89 % of control | dose: 1.25 mg/kg/injection, schedule: Q01DX Z (ip), vehicle: saline 89 % of control | dose: 2.5 mg/kg/injection, schedule: Q01DX Z (ip), vehicle: saline 88 % of control | dose: 5.0 mg/kg/injection, schedule: Q01DX Z (ip), vehicle: saline 86 % of control | dose: 5.0 mg/kg/injection, schedule: Q04DX003 (ip), vehicle: saline with Tween-80 102 % of control

CC(C)C(CN)(CCCCN1CCOCC1)c1cccc2ccccc12 (stereo not drawn)
inactive: dose: 100.0 mg/kg/injection, schedule: Q04DX003 (ip), vehicle: saline with Tween-80 100 % of control | dose: 200.0 mg/kg/injection, schedule: Q04DX003 (ip), vehicle: saline with Tween-80 95 % of control | dose: 400.0 mg/kg/injection, schedule: Q04DX003 (ip), vehicle: saline with Tween-80 95 % of control

Cc1cccc(C)c1C(Cl)CS(=O)(=O)c1ccccc1 (stereo not drawn)
inactive: [4] 102 % of control | [5] 107 % of control | [6] 107 % of control

O=C(/C=C/c1ccco1)c1ccc([N+](=O)[O-])cc1
inactive: dose: 25.0 mg/kg/injection, schedule: Q04DX003 (ip), vehicle: Klucel (hydroxypropylcellulose) (HPC) 106 % of control | dose: 50.0 mg/kg/injection, schedule: Q04DX003 (ip), vehicle: Klucel (hydroxypropylcellulose) (HPC) 104 % of control | [4] 97 % of control

O=C(NC1CCCCC1)Oc1ccc2ccccc2c1
inactive: dose: 100.0 mg/kg/injection, schedule: Q04DX002 (ip), vehicle: Klucel (hydroxypropylcellulose) (HPC) 102 % of control | dose: 200.0 mg/kg/injection, schedule: Q04DX002 (ip), vehicle: Klucel (hydroxypropylcellulose) (HPC) 100 % of control | dose: 400.0 mg/kg/injection, schedule: Q04DX002 (ip), vehicle: Klucel (hydroxypropylcellulose) (HPC) 107 % of control

CCC(c1ccc2cc(OC)ccc2c1)C(C)(C)C(=O)F (stereo not drawn)
inactive: dose: 25.0 mg/kg/injection, schedule: Q01DX009 (ip), vehicle: saline 94 % of control | dose: 31.3 mg/kg/injection, schedule: Q01DX Z (sc), vehicle: steriod suspending solution 107 % of control | dose: 50.0 mg/kg/injection, schedule: Q01DX001 (ip), vehicle: steriod suspending solution 98 % of control | dose: 50.0 mg/kg/injection, schedule: Q01DX009 (ip), vehicle: saline 100 % of control | dose: 62.5 mg/kg/injection, schedule: Q01DX Z (sc), vehicle: steriod suspending solution 110 % of control | dose: 100.0 mg/kg/injection, schedule: Q01DX001 (ip), vehicle: steriod suspending solution 96 % of control | dose: 100.0 mg/kg/injection, schedule: Q04DX003 (ip), vehicle: acetone 94 % of control | dose: 125.0 mg/kg/injection, schedule: Q01DX Z (sc), vehicle: steriod suspending solution 108 % of control | dose: 250.0 mg/kg/injection, schedule: Q01DX Z (sc), vehicle: steriod suspending solution 108 % of control

CCOC(=O)c1[nH]cnc1/N=N/N(C)C1CCCCC1
inactive: dose: 85.0 mg/kg/injection, schedule: Q01DX015 (ip), vehicle: carboxymethylcellulose (CMC) 103 % of control | dose: 100.0 mg/kg/injection, schedule: Q01DX001 (ip), vehicle: carboxymethylcellulose (CMC) 98 % of control | dose: 114.0 mg/kg/injection, schedule: Q01DX015 (ip), vehicle: carboxymethylcellulose (CMC) 107 % of control | dose: 200.0 mg/kg/injection, schedule: Q01DX001 (ip), vehicle: carboxymethylcellulose (CMC) 109 % of control | dose: 400.0 mg/kg/injection, schedule: Q01DX001 (ip), vehicle: carboxymethylcellulose (CMC) 102 % of control

CCCCCCCCCC[n+]1ccc(C(N)=O)cc1
inactive: dose: 5.0 mg/kg/injection, schedule: Q01DX009 (ip), vehicle: saline with Tween-80 97 % of control | dose: 5.0 mg/kg/injection, schedule: Q04DX003 (ip), vehicle: saline 97 % of control | dose: 10.0 mg/kg/injection, schedule: Q01DX009 (ip), vehicle: saline with Tween-80 96 % of control | dose: 10.0 mg/kg/injection, schedule: Q04DX003 (ip), vehicle: saline 94 % of control | dose: 20.0 mg/kg/injection, schedule: Q01DX009 (ip), vehicle: saline with Tween-80 96 % of control | dose: 20.0 mg/kg/injection, schedule: Q04DX003 (ip), vehicle: saline 103 % of control
